Test results published in patent publication US20260102472A1, “SEMAGLUTIDE IN MEDICAL THERAPY” (Novo Nordisk A/S, priority 2023, published 2026).

Tested on: human subjects with obesity-related heart failure with preserved ejection fraction, and type 2 diabetes
Test: Randomised, double-blind, placebo-controlled clinical trial of semaglutide in obesity-related HFpEF and type 2 diabetes (Example 2)
Assay type: in vivo
Details: for Time to first HF event from randomisation leading to either hospitalisation or an urgent visit, Hazard ratio: Semaglutide 2.4 mg/placebo
From the text: The Kansas City Cardiomyopathy Questionnaire (KCCQ) is a disease-specific health status instrument composed of 23 items that quantify the domains of physical limitation, symptoms, self-efficacy, social limitation, and health-related quality of life limitation from heart failure (available via cvoutcomes.org). The questions of the KCCQ are as published in the appendix of Green et al., JACC 2000; 35 (5): 1245-55:
The Kansas City Cardiomyopathy Questionnaire clinical summary score (KCCQ-CSS) is used for interpretation of the KCCQ and scores range from 0 to 100 where higher scores indicate better function. KCCQ-CSS is calculated as the mean of the available summary scores Physical Limitation Score and Total Symptom Score from the KCCQ. […] “Total Symptom Score” is calculated as the mean of the available summary scores Symptom Frequency Score and Symptom Burden Score. “Symptom Frequency Score” is calculated, if answer to at least two of Questions 3, 5, 7 and 9 are not missing, as 100*(mean of S3, S5, S7 and S9 answered), where S3=[(Question 3)−1]/4, S5=[(Question 5)−1]/6, S7=[(Question 7)−1]/6, and S9=[(Question 9)−1]/4; answers to Question 3 are scored as follows: Every morning=1, 3 or more times a week but not every day=2, 1-2 times a week=3, Less than once a week=4, Never over the past 2 weeks=5; answers to Questions 5 and 7 are scored as follows: All of the time=1, Several times a day=2, At least once a day=3, 3 or more times a week but not every day=4, 1-2 times a week=5, Less than once a week=6, or Never over the past 2 weeks=7; and answers to Question 9 are scored as follows: Every night=1, 3 or more times a week but not every day=2, 1-2 times a week=3, Less than once a week=4, or Never over the past 2 weeks=5. “Symptom Burden Score” is calculated, if answer to at least one of Questions 4, 6 and 8 is not missing, as 100*[(mean of Questions 4, 6 and 8 answered)−1]/4 where answers are scored as follows: Extremely bothersome=1, Quite a bit bothersome=2, Moderately bothersome=3, Slightly bothersome=4, Not at all bothersome=5, or I've had no swelling/fatigue/shortness of breath=5. The term “mean of questions answered” as used herein refers to that for a scale with n in questions where the subject must answer m to score the scale, but the subject answers only n-i, where n-i>=m, then the mean of those questions is calculated as (sum of answers to those n-i questions)/(n-i).
The six minute walk test (6MWT) is a determination of the distance a subject is able to walk over a period of six minutes where the subject traverses, at its own pace and resting as needed, back and forth along a marked walkway of 20 meters with the goal of walking as far as possible without running. The distance obtained from 6MWT is referred to as the six minute walk distance (6MWD). The 6MWT is a direct and timed measure of walking ability, which is technically simple and reproducible.
Heart failure exists in different degrees of severity. The most commonly used classification system of heart failure is the New York Heart Association Functional Classification (also referred to as “NYHA”). NYHA categorises subjects in one of four classes I-IV (Table A), based on their degree of limitation during physical activity, and optionally an additional subgroup A-D based on objective assessments, for further details see The Criteria Committee of the New York Heart Association. Nomenclature and Criteria for Diagnosis of Diseases of the Heart and Great Vessels. 9th ed. Boston, Mass: Little, Brown & Co; 1994:253-256.
A randomised, double-blind, international multicentre, placebo-controlled clinical trial with semaglutide was carried out with 616 human subjects with obesity-related heart failure with preserved ejection fraction, and type 2 diabetes. […]

[1] = pair-wise comparisons vs. placebo, 2.4 mg, type 2 diabetes
[2] = week 0, 2.4 mg once weekly, type 2 diabetes
[3] = week 20, 2.4 mg once weekly, type 2 diabetes
[4] = week 36, 2.4 mg once weekly, type 2 diabetes
[5] = week 52, 2.4 mg once weekly vs. placebo, type 2 diabetes
[6] = week 52, 2.4 mg once weekly vs. placebo, type 2 diabetes, listed as semaglutide
[7] = week 52, 2.4 mg once weekly, type 2 diabetes
[8] = week 52, 2.4 mg once weekly, type 2 diabetes, ANCOVA estimate

For “N-epsilon26-[2-(2-{2-[2-(2-{2-[(S)-4-Carboxy-4-(17-carboxyheptadecanoyl-amino) butyrylamino]ethoxy}ethoxy) acetylamino]ethoxy}ethoxy) acetyl] [Aib8,Arg34] GLP-1-(7-37) [Semaglutide]”, the Inflammation (HFpEF, obesity and type 2 diabetes, no data given) was “reduced inflammation”, the “Time to first HF event from randomisation leading to either hospitalisation or an urgent visit, Hazard ratio” value (type 2 diabetes) was 0.40 and the “Time to first HF event from randomisation leading to either hospitalisation or an urgent visit, Hazard ratio” value (type 2 diabetes, listed as semaglutide) was “risk of experiencing a heart failure event was less”. The “Patients improved or with no change in NYHA class compared with placebo” value (baseline to 52 weeks, type 2 diabetes) was “more patients treated with semaglutide improved or observed no change in NYHA class”, the “More wins on semaglutide as compared to placebo” value (hierarchical composite endpoint, type 2 diabetes) was 59% and the “Hierarchical composite endpoint, Loss: All-cause death” value [1] was 1.9%. The “Hierarchical composite endpoint, Loss: Change in 6MWD ≥30 meters difference” value [1] was 4.1%, the “Hierarchical composite endpoint, Loss: Change in KCCQ-CSS ≥5 points difference” value [1] was 6.2% and the “Hierarchical composite endpoint, Loss: Change in KCCQ-CSS ≥10 points difference” value [1] was 5.0%. For the same substance, the “Hierarchical composite endpoint, Loss: Change in KCCQ-CSS ≥15 points difference” value [1] was 18.2%, the “Hierarchical composite endpoint, Loss: Number of HF events” value [1] was 1.2% and the “Hierarchical composite endpoint, Loss: Time-to-first HF event” value [1] was 0.0%. The “Hierarchical composite endpoint, Loss: Total” value [1] was 36.8%, the “Hierarchical composite endpoint, Proportion of ties” value [1] was “Proportion of ties: 4.5%” and the “Hierarchical composite endpoint, Wins: All-cause death” value [1] was 2.9%. For the same substance, the “Hierarchical composite endpoint, Wins: Change in 6MWD ≥30 meters difference” value [1] was 4.9%, the “Hierarchical composite endpoint, Wins: Change in KCCQ-CSS ≥5 points difference” value [1] was 7.3% and the “Hierarchical composite endpoint, Wins: Change in KCCQ-CSS ≥10 points difference” value [1] was 6.6%. For the same substance, the “Hierarchical composite endpoint, Wins: Change in KCCQ-CSS ≥15 points difference” value [1] was 32.3%, the “Hierarchical composite endpoint, Wins: Number of HF events” value [1] was 4.7% and the “Hierarchical composite endpoint, Wins: Time-to-first HF event” value [1] was 0.0%. The “Hierarchical composite endpoint, Wins: Total” value [1] was 58.7%, the “Observed KCCQ-CSS mean change from baseline” value (“Observed KCCQ-CSS mean change” for short) [2] was 0 and the “Observed body weight (%) mean change from baseline” value [2] was 0%. For the same substance, the “Observed six minutes walk distance mean change from baseline” value [2] was 0 meters, the “Observed body weight (%) mean change from baseline” value (week 4, dose escalation to 2.4 mg once weekly, type 2 diabetes) was −1.8% and the “Observed body weight (%) mean change from baseline” value (week 8, dose escalation to 2.4 mg once weekly, type 2 diabetes) was −3.1%. For the same substance, the “Observed body weight (%) mean change from baseline” value (week 12, dose escalation to 2.4 mg once weekly, type 2 diabetes) was −4.5%, the “Observed body weight (%) mean change from baseline” value (week 16, dose escalation to 2.4 mg once weekly, type 2 diabetes) was −5.8% and the “Observed KCCQ-CSS mean change” value [3] was 11.1. The “Observed body weight (%) mean change from baseline” value [3] was −6.6%, the “Observed six minutes walk distance mean change from baseline” value [3] was 23.0 meters and the “Observed body weight (%) mean change from baseline” value (week 28, 2.4 mg once weekly, type 2 diabetes) was −8.0%. The “Observed KCCQ-CSS mean change” value [4] was 14.2, the “Observed body weight (%) mean change from baseline” value [4] was −9.1% and the “Observed body weight (%) mean change from baseline” value (week 44, 2.4 mg once weekly, type 2 diabetes) was −9.8%. The “Body weight (%) change from baseline to week 52, Treatment difference vs. placebo” value [5] was −6.4%, the “Improvement of ≥5 points in KCCQ-CSS, Treatment Odds ratio vs. placebo” value [5] was 2.29 and the “Improvement of ≥10 points in KCCQ-CSS, Treatment Odds ratio vs. placebo” value [5] was 2.06. For the same substance, the “KCCQ-CSS change from baseline to week 52, Treatment difference vs. placebo” value [5] was 7.3 score, the “Six minutes walk distance change from baseline to week 52, Treatment difference vs. placebo” value [5] was 14.3 meters and the “Body weight (%) change from baseline to week 52, Treatment difference vs. placebo” value [6] was “significantly larger body weight loss”. The “KCCQ-CSS change from baseline to week 52, Treatment difference vs. placebo” value [6] was “significantly larger improvement in KCCQ-CSS”, the “Six minutes walk distance change from baseline to week 52, Treatment difference vs. placebo” value [6] was “significantly larger improvement in six minutes walk distance” and the “NYHA class from baseline to week 52: Improvement” value [7] was 33.9%. The “NYHA class from baseline to week 52: No change” value [7] was 63.7%, the “NYHA class from baseline to week 52: Worsening” value [7] was 2.4% and the “Observed KCCQ-CSS mean change” value [7] was 14.4. For the same substance, the “Observed body weight (%) mean change from baseline” value [7] was −10.2%, the “Observed proportion improving ≥5 points from baseline in KCCQ-CSS” value [7] was 73% and the “Observed proportion improving ≥10 points from baseline in KCCQ-CSS” value [7] was 58%. The “Observed six minutes walk distance mean change from baseline” value [7] was 18.6 meters, the “Body weight (%) change from baseline to week 52, Estimate” value [8] was −9.8% and the “KCCQ-CSS change from baseline to week 52, Estimate” value [8] was 13.7 score. For the same substance, the “Six minutes walk distance change from baseline to week 52, Estimate” value [8] was 12.7 meters.
